In PMC9151520 (Archives of Toxicology, 2022):
Counter-ions that a name gives are not always drawn. Like-named read-outs stand apart in the source and are kept apart here.

How the values were obtained:
[1] = system: p53 signaling (p53RE-bla HCT-116 cells); assay: cells; format: cell-based
[2] = system: p53 signaling (p53RE-bla HCT-116 cells)
[3] = system: p53 signaling (p53RE-bla HCT-116 cells); remark: listed apart in the source
[4] = system: p53 signaling (p53RE-bla HCT-116 cells); assay: cells; settings: Homo sapiens
[5] = HCT-116, read-out: p53 activation EC50, HLM
[6] = HCT-116, read-out: p53 activation EC50
[7] = Homo sapiens, HCT-116, read-out: p53 activation efficacy
[8] = HCT-116, read-out: p53 activation efficacy

SMILES | p53 activation EC50, No MS [1] | p53 activation Efficacy, No MS [1] | p53 activation EC50, RLM [2] | p53 activation Efficacy, RLM [2] | p53 activation EC50, HLM [3] | Viability EC50, HLM (p53RE-bla HCT-116 cells) | Viability EC50, No MS (p53RE-bla HCT-116 cells) | Viability EC50, RLM (p53RE-bla HCT-116 cells) | Viability Efficacy, HLM (p53RE-bla HCT-116 cells) | Viability Efficacy, No MS (p53RE-bla HCT-116 cells) | Viability Efficacy, RLM (p53RE-bla HCT-116 cells) | EC50 [4, 5] | p53 activation efficacy [2] | p53 activation EC50 [3] | Viability EC50 (p53RE-bla HCT-116 cells) | Viability efficacy (p53RE-bla HCT-116 cells) | also measured
N=C(N)NC(=O)c1nc(Cl)c(N)nc1N [Amiloride hydrochloride] | inactive | inactive | inactive | inactive | inactive | inactive | inactive | inactive | inactive | inactive | inactive | 38.7 µM | – | – | – | – | –
O=c1ccc2ccccc2o1 [Coumarin] | inactive | inactive | inactive | inactive | inactive | inactive | inactive | inactive | inactive | inactive | inactive | 28.6 µM | – | – | – | – | –
Nc1ccn([C@@H]2O[C@H](CO)[C@@H](O)[C@@H]2O)c(=O)n1 [Cytarabine hydrochloride] | – | – | – | – | – | – | – | – | – | – | – | – | inactive | inactive | inactive | inactive | p53 activation efficacy [1]: 74.252; p53 activation EC50 [2]: inactive; EC50 [4, 6]: 3.49 µM
COP(=S)(OC)Oc1ccc(S(N)(=O)=O)cc1 [Cythioate] | inactive | inactive | inactive | inactive | inactive | inactive | inactive | inactive | inactive | inactive | inactive | 3.59 µM | – | – | – | – | –
CCOP(=S)(OCC)SC(CCl)N1C(=O)c2ccccc2C1=O (stereo not shown) [Dialifor] | – | – | – | – | – | – | – | – | – | – | – | – | 52.0707 | inactive | inactive | inactive | p53 activation EC50 [1]: inactive; p53 activation efficacy [1]: inactive; EC50 [4, 6]: 3.03 µM
Oc1c(Cl)c(Cl)c(Cl)c(Cl)c1Cl [Pentachlorophenol] | – | – | – | – | – | – | – | – | – | – | – | – | – | – | – | – | EC50 ([1]; Homo sapiens, HCT-116, read-out: EC50, p53 activation, cherry pick confirmation): 14.1 µM; EC50 ([1]; Homo sapiens, HCT-116, read-out: EC50, p53 activation, primary screening): 13.4 µM; Emax ([1]; Homo sapiens, HCT-116, read-out: Efficacy, p53 activation, cherry pick confirmation): 32.5%; Emax ([1]; Homo sapiens, HCT-116, read-out: Efficacy, p53 activation, primary screening): 47.3%; EC50, p53 activation, cherry pick confirmation [2]: inactive; EC50, p53 activation, primary screening [2]: inactive; Efficacy, p53 activation, cherry pick confirmation [2]: inactive; Efficacy, p53 activation, primary screening [2]: inactive; EC50, p53 activation, cherry pick confirmation [3]: inactive; Efficacy, p53 activation, cherry pick confirmation [3]: inactive; EC50, viability, cherry pick confirmation (p53RE-bla HCT-116 cells): inactive; EC50, viability, primary screening (p53RE-bla HCT-116 cells): inactive; Efficacy, viability, cherry pick confirmation (p53RE-bla HCT-116 cells): inactive; Efficacy, viability, primary screening (p53RE-bla HCT-116 cells): inactive; EC50 ([4]; HCT-116, read-out: EC50, p53 activation, primary screening): 15.5 µM; Emax ([4]; HCT-116, read-out: Efficacy, p53 activation, primary screening): 30.9%
CNC(=O)Oc1ccc2c(c1)[C@]1(C)CCN(C)[C@@H]1N2C [Physostigmine] | inactive | inactive | inactive | inactive | inactive | inactive | inactive | inactive | inactive | inactive | inactive | 7.07 µM | – | – | – | – | –
COC(=O)N(OC)c1ccccc1COc1ccn(-c2ccc(Cl)cc2)n1 [Pyraclostrobin] | – | – | – | – | – | – | – | – | – | – | – | – | inactive | inactive | inactive | inactive | p53 activation efficacy [1]: 41.5523; Emax [1, 7]: 36.4%; EC50 ([1]; read-out: p53 activation EC50): 2.62 µM; p53 activation EC50 [2]: inactive; Emax [4, 8]: 36.3%
CC(=O)NS(=O)(=O)c1ccc(N)cc1 [Sulfacetamide] | inactive | inactive | inactive | inactive | inactive | inactive | inactive | inactive | inactive | inactive | inactive | 44.2 µM | – | – | – | – | –
C[C@]12CC[C@H]3[C@@H](CC[C@@]45O[C@@H]4C(O)=C(C#N)C[C@]35C)[C@@H]1CC[C@@H]2O [Trilostane] | – | – | – | – | – | – | – | – | – | – | – | – | inactive | inactive | inactive | inactive | p53 activation EC50 [1]: inactive; EC50 ([1]; Homo sapiens, HCT-116, read-out: p53 activation EC50): 44.1 µM; Emax [1, 7]: 98.3%; p53 activation EC50 [2]: inactive; EC50 [4, 6]: 41 µM; Emax [4, 8]: 53.3%
Cl[C@H]1[C@H](Cl)[C@@H](Cl)[C@H](Cl)[C@@H](Cl)[C@@H]1Cl [beta-Hexachlorocyclohexane] | inactive | inactive | inactive | inactive | inactive | inactive | inactive | inactive | inactive | inactive | inactive | 47.3 µM | – | – | – | – | –
